Measurements as given in US20180071317A1, “USE OF AGENTS THAT ALTER THE PERITUMORAL ENVIRONMENT FOR THE TREATMENT OF CANCER” (SERVICIO ANDALUZ DE SALUD, priority 2011, published 2018).

Legend:
[1] = tested on: fibroblasts (PHF) co-cultivated with tumor cell lymphoblastic leukemia B (SDI); test: Marker expression (IHC) in PHF co-cultured with SDI tumor cells; type: cell-based, human; conditions: PHF co-cultivated with SDI + SP + NK1 antagonist
Protocol: (§1) All cultures were maintained 48 hours, following which the same cells were included in paraffin blocks for subsequent analysis of the expression of different markers by immunohistochemistry (see Example 1). […] All experiments were carried out sixfold. Analyzed markers in fibroblast cells (stromal cells) were: TGF-α, TGF-β1, TGF-β2, TGF-β3, SPARC, MMP-3, MMP-7, MMP-9, MMP-11, MMP-13 and MMP-14.

[2] = tested on: leukocyte cells (mono and polymorphonuclear) in co-culture with cells isolated from primary human tumors; test: Marker expression (IHC) in leukocytes co-cultured with primary human tumor cells (colon, pancreatic, lung carcinoma, glioma, melanoma); type: cell-based; conditions: SP 1 μM + antagonist 1 μM;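 also: tumor cells and leukocytes came from the same patients, co-culture contents were paraffin-embedded for immunohistochemistry with antibodies to TGF-β2 or NF-kB, leukocytes cultured alone served as control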
Protocol: To check that the interaction of the human primary tumor cells with cells of the immune/inflammatory (mono and polymorphonuclear leukocytes) cells, stimulates the secretion of substances of importance for survival and tumor progression, cultures were carried out using sets of immune cells/inflammatory (mono and polymorphonuclear leukocytes) with tumor cells obtained directly from primary human tumors of the same patients.
The same method described in Example 7 and 9 was used to obtain tumor cells from primary human tumors. Similarly cultured immune cells/inflammatory (mono and polymorphonuclear leukocytes) were used as control and secondly, cultured tumor cells isolated from patients in the presence of immune cells/inflammatory (mono and polymorphonuclear leukocytes).
Then, paraffin blocks were prepared with the contents of each of the groups mentioned previously for expression studies using immunohistochemistry. On this occasion, in order to identify the secretion of substances with importance for the survival and progression of tumor the following markers were analyzed: TGF-β2 (SAB4502956) and NF-kB (SAB4501992) using specific antibodies against them. All antibodies used were rabbit polyclonal antibodies obtained from Sigma Aldrich and were used at a concentration of 1/1000. Immunohistochemical techniques were performed and evaluated as described in previous examples.

[3] = tested on: fibroblasts (PHF) cells co-cultured with human T lymphoma tumor (DERL-7); test: Marker expression (IHC) in PHF co-cultured with DERL-7 tumor cells; type: cell-based; conditions: PHF co-cultured with DERL-7 + SP + NK1 antagonist
Protocol: (§2) All cultures were maintained 48 hours, following which the same cells were included in paraffin blocks for subsequent analysis of the expression of different markers by immunohistochemistry (see Example 1). The primary antibodies used to perform immunohistochemical assays and their concentration are detailed in Example 2. All experiments were carried out sixfold. Analyzed markers in fibroblast cells (stromal cells) were: TGF-α, TGF-β1, TGF-β2, TGF-β3, SPARC, MMP-3, MMP-7, MMP-9, MMP-11, MMP-13 and MMP-14.

[4] = tested on: fibroblasts (PHF) co-cultured with human glioma tumor cells (GAMG); test: Marker expression (IHC) in PHF co-cultured with GAMG tumor cells; type: cell-based; conditions: co-culture with GAMG; SP 1 μM + antagonist 1 μM; 48 h;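 also: percentage of PHF fibroblasts positive for each marker, cultured in fresh plasma from a healthy donor, six replicates, with fibroblasts cultured alone as reference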
Protocol: as §1

[5] = tested on: fibroblasts (PHF) co-cultured with tumor cells, thyroid carcinoma; test: Marker expression (IHC) in PHF co-cultured with thyroid carcinoma tumor cells; type: cell-based, human; conditions: co-culture with thyroid carcinoma cells; SP 1 μM + antagonist 1 μM; 48 h;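 also: grown in fresh plasma from a healthy human donor, read-out is percent of fibroblasts positive for each marker, compared with fibroblasts cultured alone, run in six replicates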
Protocol: as §1

[6] = tested on: fibroblasts (PHF) co-cultured with tumor cells, thyroid carcinoma (reference A-427); test: as above; type: cell-based, human; conditions: co-culture with thyroid carcinoma cells; SP 1 μM + antagonist 1 μM; 48 h
Protocol: as §1

[7] = tested on: fibroblasts (PHF) co-cultured with tumor cells, ovarian carcinoma (EFO-27); test: Marker expression (IHC) in PHF co-cultured with EFO-27 tumor cells; type: cell-based, human; conditions: co-culture with EFO-27; SP 1 μM + antagonist 1 μM; 48 h;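 also: values are the percentage of PHF fibroblasts positive for each marker, cultured in fresh plasma from a healthy human donor, each experiment run in six replicates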
Protocol: as §1

[8] = tested on: fibroblasts (PHF) co-cultured with tumor cells of human pancreatic adenocarcinoma (CAPAN-1); test: Marker expression (IHC) in PHF co-cultured with CAPAN-1 tumor cells; type: cell-based; conditions: co-culture with CAPAN-1; SP 1 μM + antagonist 1 μM; 48 h;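 also: cultures grown in fresh plasma from a healthy human donor, run in six replicates, value is percent of fibroblasts positive for each marker, compared with fibroblasts cultured alone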
Protocol: as §2

[9] = tested on: fibroblast cells in co-culture with cells isolated from primary human tumors; test: Marker expression (IHC) in fibroblasts co-cultured with primary human tumor cells (colon, pancreatic, lung carcinoma, glioma, multiple myeloma); type: cell-based
[10] = co-culture with cells isolated from colon carcinoma
[11] = co-culture with cells isolated from glioma
[12] = co-culture with cells isolated from lung carcinoma
[13] = co-culture with cells isolated from melanoma
[14] = co-culture with cells isolated from pancreatic carcinoma
[15] = Primary tumor cells (colon carcinoma) co-cultured + fibroblast + SP (1 μM) + NK1 antagonist 1 μM
[16] = co-culture with cells isolated from glioma, SP 1 μM + antagonist 1 μM
[17] = co-culture with cells isolated from lung cancer, SP 1 μM + antagonist 1 μM
[18] = co-culture with cells isolated from multiple myeloma, SP 1 μM + antagonist 1 μM
[19] = co-culture with cells isolated from pancreatic carcinoma, SP 1 μM + antagonist 1 μM

CC(=O)N1CCN([C@H]2CCN(C(=O)N(C)[C@H](C)c3cc(C(F)(F)F)cc(C(F)(F)F)c3)[C@@H](c3ccc(F)cc3C)C2)CC1 [Casopitant]
0%: cells expressing MMP-3 [1] | cells expressing MMP-7 [1] | cells expressing MMP-9 [1] | cells expressing MMP-11 [1] | cells expressing MMP-13 [1] | cells expressing MMP-14 [1] | cells expressing SPARC [1] | cells expressing TGF-α [1] | cells expressing TGF-β1 [1] | cells expressing TGF-β2 [1] | cells expressing TGF-β3 [1] | Percentage of mononuclear leukocytes cells which expressed NF-kB [2, 10] | Percentage of mononuclear leukocytes cells which expressed TGF-β [2, 10] | Percentage of polymorphonuclear leukocytes cells which expressed NF-kB [2, 10] | Percentage of polymorphonuclear leukocytes cells which expressed TGF-β [2, 10] | Percentage of mononuclear leukocytes cells expressing NF-kB [2, 11] | Percentage of mononuclear leukocytes cells expressing TGF-β [2, 11] | Percentage of polymorphonuclear leukocytes cells expressing NF-kB [2, 11] | Percentage of polymorphonuclear leukocytes cells expressing TGF-β [2, 11] | Percentage of mononuclear leukocytes cells which expressed NF-kB [2, 12] | Percentage of mononuclear leukocytes cells which expressed TGF-β [2, 12] | Percentage of polymorphonuclear leukocytes cells which expressed NF-kB [2, 12] | Percentage of polymorphonuclear leukocytes cells which expressed TGF-β [2, 12] | Percentage of mononuclear leukocytes cells which expressed NF-kB [2, 13] | Percentage of mononuclear leukocytes cells which expressed TGF-β [2, 13] | Percentage of polymorphonuclear leukocytes cells which expressed NF-kB [2, 13] | Percentage of polymorphonuclear leukocytes cells which expressed TGF-β [2, 13] | Percentage of mononuclear leukocytes cells which expressed NF-kB [2, 14] | Percentage of mononuclear leukocytes cells which expressed TGF-β [2, 14] | Percentage of polymorphonuclear leukocytes cells which expressed NF-kB [2, 14] | Percentage of polymorphonuclear leukocytes cells which expressed TGF-β [2, 14] | cells expressing MMP-3 [3] | cells expressing MMP-7 [3] | cells expressing MMP-9 [3] | cells expressing MMP-11 [3] | cells expressing MMP-13 [3] | cells expressing MMP-14 [3] | cells expressing SPARC [3] | cells expressing TGF-α [3] | cells expressing TGF-β1 [3] | cells expressing TGF-β2 [3] | cells expressing TGF-β3 [3] | PHF cells expressing MMP-3 [4] | PHF cells expressing MMP-7 [4] | PHF cells expressing MMP-9 [4] | PHF cells expressing MMP-11 [4] | PHF cells expressing MMP-13 [4] | PHF cells expressing MMP-14 [4] | PHF cells expressing SPARC [4] | PHF cells expressing TGF-α [4] | PHF cells expressing TGF-β1 [4] | PHF cells expressing TGF-β2 [4] | PHF cells expressing TGF-β3 [4] | PHF cells expressing MMP-11 [5] | PHF cells expressing MMP-3 [6] | PHF cells expressing MMP-7 [6] | PHF cells expressing MMP-9 [6] | PHF cells expressing MMP-13 [6] | PHF cells expressing MMP-14 [6] | PHF cells expressing SPARC [6] | PHF cells expressing TGF-α [6] | PHF cells expressing TGF-β1 [6] | PHF cells expressing TGF-β2 [6] | PHF cells expressing TGF-β3 [6] | PHF cells expressing MMP-3 [7] | PHF cells expressing MMP-7 [7] | PHF cells expressing MMP-9 [7] | PHF cells expressing MMP-11 [7] | PHF cells expressing MMP-13 [7] | PHF cells expressing MMP-14 [7] | PHF cells expressing SPARC [7] | PHF cells expressing TGF-α [7] | PHF cells expressing TGF-β1 [7] | PHF cells expressing TGF-β2 [7] | PHF cells expressing TGF-β3 [7] | PHF cells expressing MMP-3 [8] | PHF cells expressing MMP-7 [8] | PHF cells expressing MMP-9 [8] | PHF cells expressing MMP-11 [8] | PHF cells expressing MMP-13 [8] | PHF cells expressing MMP-14 [8] | PHF cells expressing SPARC [8] | PHF cells expressing TGF-α [8] | PHF cells expressing TGF-β1 [8] | PHF cells expressing TGF-β2 [8] | PHF cells expressing TGF-β3 [8] | Percentage of fibroblast cells which expressed MMP-3 [9, 15] | Percentage of fibroblast cells which expressed MMP-7 [9, 15] | Percentage of fibroblast cells which expressed MMP-9 [9, 15] | Percentage of fibroblast cells which expressed MMP-11 [9, 15] | Percentage of fibroblast cells which expressed MMP-13 [9, 15] | Percentage of fibroblast cells which expressed MMP-14 [9, 15] | Percentage of fibroblast cells which expressed SPARC [9, 15] | Percentage of fibroblast cells which expressed TGFα [9, 15] | Percentage of fibroblast cells which expressed TGFβ1 [9, 15] | Percentage of fibroblast cells which expressed TGFβ2 [9, 15] | Percentage of fibroblast cells which expressed TGFβ3 [9, 15] | Percentage of fibroblast cells which expressed MMP-3 [9, 16] | Percentage of fibroblast cells which expressed MMP-7 [9, 16] | Percentage of fibroblast cells which expressed MMP-9 [9, 16] | Percentage of fibroblast cells which expressed MMP-11 [9, 16] | Percentage of fibroblast cells which expressed MMP-13 [9, 16] | Percentage of fibroblast cells which expressed MMP-14 [9, 16] | Percentage of fibroblast cells which expressed SPARC [9, 16] | Percentage of fibroblast cells which expressed TGFα [9, 16] | Percentage of fibroblast cells which expressed TGFβ1 [9, 16] | Percentage of fibroblast cells which expressed TGFβ2 [9, 16] | Percentage of fibroblast cells which expressed TGFβ3 [9, 16] | Percentage of fibroblast cells which expressed MMP-3 [9, 17] | Percentage of fibroblast cells which expressed MMP-7 [9, 17] | Percentage of fibroblast cells which expressed MMP-9 [9, 17] | Percentage of fibroblast cells which expressed MMP-11 [9, 17] | Percentage of fibroblast cells which expressed MMP-13 [9, 17] | Percentage of fibroblast cells which expressed MMP-14 [9, 17] | Percentage of fibroblast cells which expressed SPARC [9, 17] | Percentage of fibroblast cells which expressed TGFα [9, 17] | Percentage of fibroblast cells which expressed TGFβ1 [9, 17] | Percentage of fibroblast cells which expressed TGFβ2 [9, 17] | Percentage of fibroblast cells which expressed TGFβ3 [9, 17] | Percentage of fibroblast cells which expressed MMP-3 [9, 18] | Percentage of fibroblast cells which expressed MMP-7 [9, 18] | Percentage of fibroblast cells which expressed MMP-9 [9, 18] | Percentage of fibroblast cells which expressed MMP-11 [9, 18] | Percentage of fibroblast cells which expressed MMP-13 [9, 18] | Percentage of fibroblast cells which expressed MMP-14 [9, 18] | Percentage of fibroblast cells which expressed SPARC [9, 18] | Percentage of fibroblast cells which expressed TGFα [9, 18] | Percentage of fibroblast cells which expressed TGFβ1 [9, 18] | Percentage of fibroblast cells which expressed TGFβ2 [9, 18] | Percentage of fibroblast cells which expressed TGFβ3 [9, 18] | Percentage of fibroblast cells which expressed MMP-3 [9, 19] | Percentage of fibroblast cells which expressed MMP-7 [9, 19] | Percentage of fibroblast cells which expressed MMP-9 [9, 19] | Percentage of fibroblast cells which expressed MMP-11 [9, 19] | Percentage of fibroblast cells which expressed MMP-13 [9, 19] | Percentage of fibroblast cells which expressed MMP-14 [9, 19] | Percentage of fibroblast cells which expressed SPARC [9, 19] | Percentage of fibroblast cells which expressed TGFα [9, 19] | Percentage of fibroblast cells which expressed TGFβ1 [9, 19] | Percentage of fibroblast cells which expressed TGFβ2 [9, 19] | Percentage of fibroblast cells which expressed TGFβ3 [9, 19]
